Data set [1] relates to Rattus norvegicus. Kind of data set: Antiulcerative colitis activity in TNBS-induced Sprague-Dawley rat colitis model assessed as decrease in severity of inflammation at 115 mg/kg qd for 6 consecutive days measured on 7th day. The class given is functional, organism-based.
Data set [2] concerns Rattus norvegicus. Put plainly: Antiulcerative colitis activity in TNBS-induced Sprague-Dawley rat colitis model assessed as effect on TNBS-induced inflammatory infiltrate at 115 mg/kg qd for 6 consecutive days by hematoxylin and eosin staining based light microscopic analysis. The class given is functional, organism-based.
The test system of data set [3] is Rattus norvegicus. Kind of data set: Antiulcerative colitis activity in TNBS-induced Sprague-Dawley rat colitis model assessed as effect on TNBS-induced mucosal abscess at 115 mg/kg qd for 6 consecutive days by hematoxylin and eosin staining based light microscopic analysis. Type of data set: functional, organism-based.
Data set [4] relates to Rattus norvegicus. Put plainly: Antiulcerative colitis activity in TNBS-induced Sprague-Dawley rat colitis model assessed as decrease in severity of inflammation at 300 mg/kg qd for 6 consecutive days measured on 7th day. The class given is functional, organism-based.
The test system of data set [5] is Rattus norvegicus. Put plainly: Antiulcerative colitis activity in TNBS-induced Sprague-Dawley rat colitis model assessed as myeloperoxidase activity at 300 mg/kg, qd for 6 consecutive days by spectrophotometry (reference value: 1.44 +/- 0.041 U/g). Type of data set: functional.
A short description of data set [6]: Aqueous solubility of the compound. Type of data set: physicochemical. Conditions: buffer.
Data set [7] in a line: Partition coefficient, log P of the compound at pH 7.4 by shake flask method. Type of data set: physicochemical. Conditions: octanol/water.
Data set [8] in a line: Stability of compound in isotonic phosphate buffer at pH 1.2 after 12 hrs by HPLC analysis. The class given is physicochemical. Conditions: pH 1.2, 12 h.
Data set [9] deals with Rattus norvegicus. Kind of data set: Antiulcerative colitis activity in TNBS-induced Sprague-Dawley rat colitis model assessed as decrease in macroscopic injury ratio drug administered once daily for 6 consecutive days measured 24 hrs after last drug challenge. The class given is functional, organism-based.
The test system of data set [10] is Rattus norvegicus. Kind of data set: Antiulcerative colitis activity in TNBS-induced Sprague-Dawley rat colitis model assessed as effect on TNBS-induced mucosal abscess at 128 mg/kg qd for 6 consecutive days by hematoxylin and eosin staining based light microscopic analysis. Type of data set: functional, organism-based.
Data set [11] relates to Rattus norvegicus. Kind of data set: Antiulcerative colitis activity in TNBS-induced Sprague-Dawley rat colitis model assessed as myeloperoxidase activity at 385 mg/kg, qd for 6 consecutive days by spectrophotometry (reference value: 1.44 +/- 0.041 U/g). Type of data set: functional.
A short description of data set [12]: Stability of compound in isotonic phosphate buffer at pH 6.8 after 12 hrs by HPLC analysis. Type of data set: physicochemical. Conditions: pH 6.8, 12 h.
Data set [13] concerns Rattus norvegicus. Put plainly: Antiulcerative colitis activity in TNBS-induced Sprague-Dawley rat colitis model drug administered for once daily for 6 consecutive days. The class given is functional, organism-based.
The nature of data set [14]: Stability of compound in isotonic phosphate buffer at pH 7.4 after 12 hrs by HPLC analysis. The class given is physicochemical. Conditions: pH 7.4, 12 h.
Data set [15] has as its system Rattus norvegicus. Kind of data set: Antiulcerative colitis activity in TNBS-induced Sprague-Dawley rat colitis model assessed as normal morphology of colon at 385 mg/kg qd for 6 consecutive days by hematoxylin and eosin staining based light microscopic analysis. Type of data set: functional, organism-based.
For data set [16], the system named is Rattus norvegicus. Put plainly: Antiulcerative colitis activity in TNBS-induced Sprague-Dawley rat colitis model assessed as myeloperoxidase activity at 255 mg/kg, qd for 6 consecutive days by spectrophotometry (reference value: 1.44 +/- 0.041 U/g). The class given is functional.
For data set [17], the system named is Rattus norvegicus. Kind of data set: Antiulcerative colitis activity in TNBS-induced Sprague-Dawley rat colitis model assessed as decrease in colon/body weight ratio drug administered once daily for 6 consecutive days measured 24 hrs after last drug challenge. The class given is functional, organism-based.
Data set [18] relates to Rattus norvegicus. Kind of data set: Antiulcerative colitis activity in TNBS-induced Sprague-Dawley rat colitis model assessed as normal morphology of colon at 255 mg/kg qd for 6 consecutive days by hematoxylin and eosin staining based light microscopic analysis. The class given is functional, organism-based.
Data set [19] deals with Rattus norvegicus. Put plainly: Antiulcerative colitis activity in TNBS-induced Sprague-Dawley rat colitis model at 385 mg/kg, qd for 6 consecutive days measured after 12 days. The class given is functional, organism-based.
Data set [20] has as its system Rattus norvegicus. Put plainly: Antiulcerative colitis activity in TNBS-induced Sprague-Dawley rat colitis model assessed as decrease in severity of inflammation at 385 to 128 mg/kg qd for 6 consecutive days measured on 7th day. The class given is functional, organism-based.
Data set [21] relates to Stomach. Put plainly: Drug level in colitis Sprague-Dawley rat model stomach homogenate treated with sodium 4-amino-2-((2S,3R,4S,5S,6R)-3,4,5-trihydroxy-6-(hydroxymethyl)tetrahydro-2H- pyran-2-yloxy)benzoate at pH 4.5 by HPLC analysis. The class given is ADME, tissue-based. Conditions: in vivo.
The nature of data set [22]: Drug level in colitis Sprague-Dawley rat model cecum treated with sodium 4-amino-2-((2S,3R,4S,5S,6R)-3,4,5-trihydroxy-6-(hydroxymethyl)tetrahydro-2H- pyran-2-yloxy)benzoate at pH 7.4 after 12 hrs by HPLC analysis. Type of data set: ADME, tissue-based, Caecum. Conditions: in vivo, pH 7.4, 12 h.
For data set [23], the system named is Colon. Kind of data set: Drug level in colitis Sprague-Dawley rat model colon treated with sodium 4-amino-2-((2S,3R,4S,5S,6R)-3,4,5-trihydroxy-6-(hydroxymethyl)tetrahydro-2H- pyran-2-yloxy)benzoate at pH 7.4 after 12 hrs by HPLC analysis. Conditions: in vivo, pH 7.4, 12 h. Type of data set: ADME, tissue-based.
The subject of data set [24] is Stomach. Kind of data set: Drug level in Sprague-Dawley rat stomach homogenate treated with sodium 4-amino-2-((2S,3R,4S,5S,6R)-3,4,5-trihydroxy-6-(hydroxymethyl)tetrahydro-2H- pyran-2-yloxy)benzoate at pH 4.5 by HPLC analysis. Type of data set: ADME, tissue-based. Conditions: in vivo.
The subject of data set [25] is Colon. Kind of data set: Drug level in Sprague-Dawley rat colon treated with sodium 4-amino-2-((2S,3R,4S,5S,6R)-3,4,5-trihydroxy-6-(hydroxymethyl)tetrahydro-2H- pyran-2-yloxy)benzoate at pH 7.4 after 12 hrs by HPLC analysis. The class given is ADME, tissue-based. Conditions: in vivo, pH 7.4, 12 h.
For data set [26], the system named is Small intestine. Put plainly: Drug level in colitis Sprague-Dawley rat model small intestine homogenate treated with sodium 4-amino-2-((2S,3R,4S,5S,6R)-3,4,5-trihydroxy-6-(hydroxymethyl)tetrahydro-2H- pyran-2-yloxy)benzoate at pH 6.8 by HPLC analysis. The class given is ADME, tissue-based. Conditions: in vivo.
A short description of data set [27]: Drug level in Sprague-Dawley rat cecum treated with sodium 4-amino-2-((2S,3R,4S,5S,6R)-3,4,5-trihydroxy-6-(hydroxymethyl)tetrahydro-2H- pyran-2-yloxy)benzoate at pH 7.4 after 12 hrs by HPLC analysis. The class given is ADME, tissue-based, Caecum. Conditions: in vivo, pH 7.4, 12 h.
For data set [28], the system named is Small intestine. Kind of data set: Drug level in Sprague-Dawley rat small intestine homogenate treated with sodium 4-amino-2-((2S,3R,4S,5S,6R)-3,4,5-trihydroxy-6-(hydroxymethyl)tetrahydro-2H- pyran-2-yloxy)benzoate at pH 6.8 by HPLC analysis. The class given is ADME, tissue-based. Conditions: in vivo.
Data set [29] has as its system Rattus norvegicus. Put plainly: Antiulcerative colitis activity in TNBS-induced Sprague-Dawley rat colitis model assessed as myeloperoxidase activity at 115 mg/kg, qd for 6 consecutive days by spectrophotometry (reference value: 1.44 +/- 0.041 U/g). Type of data set: functional.

Converted amounts (≈) assume the structure as drawn. The source made the active and inactive calls. The rule behind the calls is not given here.

For the compound `Nc1ccc(O)c(C(=O)O)c1`, in [1], the inhibition result was “Active”. The result in [2] and in data set [3] was inactive.
With `O=C(O)c1cc(/N=N/c2ccc(S(=O)(=O)Nc3ccccn3)cc2)ccc1O` [SULFASALAZINE], the inhibition result in data set [4] was “Active”. The Activity in data set [5] is reported as 0.58 U/g.
Usually solubility stands for the dissolved amount per volume that the medium holds. Usually logD stands for lipophilicity at a set pH, counting ionised and neutral species. A high value points to higher lipophilicity. As for `Nc1ccc(C(=O)[O-])c(O[C@@H]2O[C@H](CO)[C@@H](O)[C@H](O)[C@H]2O)c1.[Na+]`, the solubility in [6] was 635 mg/mL. For the same compound, in [7], the logD is -0.44. Further, the Stability result in data set [8], in data set [12] and in data set [14] was “Stable” each time. Also, the inhibition result in data set [9] and in data set [17] was “Dose-dependent effect” throughout. Besides, the outcome in [10] was inactive. The Activity in [11] is 0.4 U/g; in data set [13], “Dose-dependent effect”; in data set [16] it was 0.51 U/g. For the same compound, the result in data set [15], in data set [18] and in [19] was Active. Moreover, in data set [20], the inhibition entry was “Active”.
On to `Nc1ccc(C(=O)O)c(O)c1` [AMINOSALICYLIC ACID], for which the Drug metabolism entry in data set [21], in [22], in data set [23], in data set [24], in data set [25] and in data set [26] was “metabolite_detected” throughout. Moreover, the Drug metabolism entry in data set [27] and in [28] was “metabolite_detected” in each case. In data set [6], the solubility is 1.43 mg/mL (≈ 9.34 mM). In [1], the inhibition entry is “Active”. In [7], this compound yielded a logD of 0.901. Also, the result in data set [2] and in data set [3] was inactive. Further, in data set [29], the Activity was 0.82 U/g.

Source of the values: ChEMBL document CHEMBL3751683, “Synthesis, colon-targeted studies and pharmacological evaluation of an anti-ulcerative colitis drug 4-Aminosalicylic acid-β-O-glucoside” (Eur J Med Chem, 2016).
